# Reference: PMC10574094, “Discovery of a SHP2 Degrader with In Vivo Anti-Tumor Activity” (Molecules, 2023)
# Experiments:
# full-length SHP2 (1-528) = target: T1, full-length SHP2 (1-528) (Homo sapiens, UniProt Q06124); experiment: SHP2 allosteric inhibition assay (DiFMUP substrate); type: biochemical; details: full length SHP2, enzymatic assay
# T1 construct: The SHP2 protein (Aa 1–528) was cloned into a pET-21a(+) vector; His; made in house; host or cells: E. coli BL21(DE3)
# T1 sequence (Q06124 1-528): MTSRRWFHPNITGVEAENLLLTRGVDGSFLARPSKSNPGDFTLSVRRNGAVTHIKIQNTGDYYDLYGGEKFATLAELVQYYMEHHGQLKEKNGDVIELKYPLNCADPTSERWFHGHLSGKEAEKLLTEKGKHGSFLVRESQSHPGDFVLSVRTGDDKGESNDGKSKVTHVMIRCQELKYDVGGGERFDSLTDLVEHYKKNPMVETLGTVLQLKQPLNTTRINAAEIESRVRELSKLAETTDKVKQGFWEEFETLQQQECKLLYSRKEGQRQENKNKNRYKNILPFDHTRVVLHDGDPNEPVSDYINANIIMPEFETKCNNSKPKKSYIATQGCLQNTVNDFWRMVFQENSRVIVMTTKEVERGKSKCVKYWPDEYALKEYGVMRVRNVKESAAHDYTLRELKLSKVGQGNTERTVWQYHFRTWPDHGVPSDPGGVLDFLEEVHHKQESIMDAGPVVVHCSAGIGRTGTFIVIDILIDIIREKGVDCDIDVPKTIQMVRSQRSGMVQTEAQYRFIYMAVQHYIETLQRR
# Protocol: The SHP2 protein (Aa 1–528) was cloned into a pET-21a(+) vector. Bacterial BL21(DE3) (Novagen) was used as an expression host, and the induction of protein expression was carried out in LB media with 1 mM IPTG at 18 °C overnight. Cell pellets were stored at −80 °C for subsequent protein purification. Protein purification was conducted at 4 °C. Frozen cell pellets were lysed by sonication in 40 mL cold lysis buffer (50 mM Tris-HCl, pH 8.0, 150 mM NaCl, 5 mM imidazole, and 1 mM PMSF) per liter cell pellet. Cell lysates were clarified by centrifuging for 15 min at 6000 rpm. The supernatant was incubated with HisPur Ni-NTA resin (Thermo Scientific, Waltham, MA, USA) for 2 h, and then packed onto a column and washed with 50 resin volume of buffer A (50 mM Tris-HCl, pH 8.0, 500 mM NaCl, 5 mM imidazole). The HIS-tagged proteins were eluted with Buffer B (50 mM Tris-HCl, pH = 8.0, 500 mM NaCl, 300 mM imidazole,). Pooled HIS-protein-containing fractions were concentrated, loaded onto a HiLoad 26/600 Superdex 75 column (GE Healthcare Biosciences, Piscataway, NJ, USA), and eluted with storage buffer (50 mM Tris-HCl, pH 8.0, 150 mM NaCl, 1 mM DTT, 10% glycerol). Proteins used for inhibition assays were purified using Ni-NTA resin (Qiagen, Hilden, Germany) followed by size exclusion column chromatography (ÄKTA pure, Cytiva, Marlborough, MA, USA) and the purity was determined to be >95% by SDS-PAGE and Coomassie staining. The protein was aliquoted and stored at −80 °C.
# The catalytic activity of SHP2 (1-528) was assayed with 6,8-Difluoro-4-Methylumbelliferyl Phosphate (DiFMUP, Invitrogen, cat# D6567) as a substrate in 3,3-Dimethylglutaric acid (DMG) buffer (50 mM DMG, pH 7.0, 1 mM EDTA, 18 mM NaCl, 0.01% Triton X-100) at 25 °C. To determine the IC50 values, the assays were performed in 96-well plates (Corning Costar 3915). Series diluted compounds were incubated with 0.5 nM of SHP2 and 0.5 μM of peptide IRS1_pY1172(dPEG8)pY1222 (sequence H2N-LN(pY)IDLDLV(dPEG8)LST(pY)ASINFQK-amide). After 30 min incubation at room temperature, the substrate DiFMUP was added to the reaction (200 μM final concentration, total reaction volume is […]) and incubated at 25 °C for 10 min. The reaction was then quenched by adding 40 μL of 160 μM bpV(Phen) (Sigma–Aldrich, cat# SML0889) solution. The fluorescence signal was monitored with a CLARIOstar Plus Microplate Spectrophotometer (BMG Labtech) using excitation and emission wavelengths of 340 and 450 nm, respectively. The inhibitordose-response curves were analyzed using normalized IC50 regression curve fitting with control-based normalization. Data were fitted using Prism GraphPad 9.2.0.
# SHP2 = target: T2, SHP2 (Homo sapiens, UniProt Q06124); experiment: SHP2 degradation by Western blotting in HEK293 cells; type: cell-based; set-up: endogenous in cells; host or cells: HEK293; details: HEK293 cells; for SHP2 degradation (in words): 1 and 10 µM; for Degradation at 1 μM / Degradation at 10 μM: 16 h treatment
# T2 sequence (Q06124 1-593): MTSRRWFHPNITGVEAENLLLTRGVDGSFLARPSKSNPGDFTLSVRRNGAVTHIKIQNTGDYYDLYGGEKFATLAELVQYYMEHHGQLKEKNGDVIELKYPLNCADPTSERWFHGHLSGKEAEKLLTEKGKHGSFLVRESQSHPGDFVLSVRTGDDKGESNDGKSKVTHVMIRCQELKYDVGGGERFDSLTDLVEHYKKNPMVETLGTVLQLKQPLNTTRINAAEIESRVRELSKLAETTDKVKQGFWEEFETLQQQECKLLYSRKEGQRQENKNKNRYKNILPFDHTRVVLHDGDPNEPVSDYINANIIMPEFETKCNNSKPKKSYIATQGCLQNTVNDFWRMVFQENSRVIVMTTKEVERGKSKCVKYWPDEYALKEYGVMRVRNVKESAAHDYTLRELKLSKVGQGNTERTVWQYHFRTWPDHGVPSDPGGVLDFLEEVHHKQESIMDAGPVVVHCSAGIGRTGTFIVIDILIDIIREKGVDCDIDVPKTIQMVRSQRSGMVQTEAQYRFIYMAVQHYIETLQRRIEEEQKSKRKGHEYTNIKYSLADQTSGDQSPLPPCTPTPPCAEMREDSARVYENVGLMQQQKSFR
# Protocol: HEK293, SKBR3, U2OS, MCF7 and A549 cells were grown in DMEM supplemented with 10% FBS, penicillin (50 units/mL), and streptomycin (50 μg/mL) in a 37 °C incubator containing 5% CO2. […] For western-blot analysis, protein samples were separated by SDS-PAGE, transferred to nitrocellulose membranes, and incubated overnight at 4 °C with corresponding primary antibodies diluted in 5% BSA in phosphate-buffered saline Tween (PBST). SuperSignal™ West Pico PLUS (PI34580; Thermo Scientific) was used to visualize the antibodies in the bioanalytical imaging system (Azure Biosystems c500). […] Anti-PTP1B (ab244207) antibody was purchased from Abcam. For colony formation assay, a total of approximately 200–500 cells were seeded to each well in a 12-well plate.
# Supplemental Figures, Schemes, and Tables:
# Figure S1. Western blots of degradation assay for PROTAC screening. (A) Degradation assay of
# compo un ds i n Table 1 at 1 μM fo r 16 hours in H EK29 3 cells. (B) Degradation assay of compounds in Table
# 1 at 10 μM for 16 hours in HEK293 cells. (C) Degradation assay of compounds in Table 2 at 1 μM for 16
# [1] = Decomposition of CRBN-based PROTACs in DMEM media or water (LCMS); type: physicochemical; details: 10 μM, within 3 h, DMEM cell media or water, room temperature
# Source text: With the desired SHP2 ligand in hand, we synthesized an initial set of PROTAC molecules using pomalidomide or lenalidomide as a ligand of the E3 ligase Cereblon (CRBN), which is one of the most productive E3 in the development of PROTACs. […] This observation is consistent with the fact that phthalimides can be smoothly hydrolyzed in the presence of water and an organic base, as these PROTAC compounds contain a basic aliphatic amino group. Given that this free amino group in the allosteric inhibitors is essential for the binding affinity to SHP2 [28], we reasoned that pomalidomide or lenalidomide-based CRBN ligands are not suitable for the development of in vivo efficacious SHP2 degraders in this study due to stability considerations.
# Scheme S1. Decomposition of CRBN-based PROTACs in the presence of water. 10 μM compound 11 or
# 12 was incubated in DMEM media or water for 3 hours. The fina l co ncentrations of the compounds at
# the endpoint were quantified by LCMS.
# Table S1. Enzymatic IC50s of first generation SHP2 PROTACs against full length SHP2
# Compound ID Linker Structure Linker Length (atom) SHP2 IC50 (n M) […]
Compound,IC50 (full-length SHP2 (1-528)),SHP2 degradation (in words) (SHP2),Degradation at 1 μM (SHP2),Degradation at 10 μM (SHP2),compound converted into ring-opened products 13 [1]
"Cc1ncsc1-c1ccc([C@H](C)NC(=O)[C@@H]2C[C@@H](O)CN2C(=O)[C@@H](NC(=O)CCCCCNC(=O)CCCCCC2(CN)CCN(c3cnc(Sc4cccc(Cl)c4Cl)c(N)n3)CC2)C(C)(C)C)cc1 [SC5, (2S,4R)-1-((S)-2-(6-(6-(1-(6-amino-5-((2,3-dichlorophenyl)thio)pyrazin-2-yl)-4-(aminomethyl)piperidin-4-yl)hexanamido)hexanamido)-3,3-dimethylbutanoyl)-4-hydroxy-N-((S)-1-(4-(4-methylthiazol-5-yl)phenyl)ethyl)pyrrolidine-2-carboxamide]",139 ± 10.4 nM,negligible to modest degradation,<10%,<10%,
"NCC1(CCCCCC(=O)NCCCCCC(=O)Nc2cccc3c2C(=O)N(C2CCC(=O)NC2=O)C3=O)CCN(c2cnc(Sc3cccc(Cl)c3Cl)c(N)n2)CC1 (stereo not drawn) [compound 11, 6-(1-(6-amino-5-((2,3-dichlorophenyl)thio)pyrazin-2-yl)-4-(aminomethyl)piperidin-4-yl)-N-(6-((2-(2,6-dioxopiperidin-3-yl)-1,3-dioxoisoindolin-4-yl)amino)-6-oxohexyl)hexanamide]",,,,,over 90%
"NCC1(CCCCCC(=O)NCCCCCC(=O)Nc2cccc3c2CN(C2CCC(=O)NC2=O)C3=O)CCN(c2cnc(Sc3cccc(Cl)c3Cl)c(N)n2)CC1 (stereo not drawn) [compound 12, 6-(1-(6-amino-5-((2,3-dichlorophenyl)thio)pyrazin-2-yl)-4-(aminomethyl)piperidin-4-yl)-N-(6-((2-(2,6-dioxopiperidin-3-yl)-1-oxoisoindolin-4-yl)amino)-6-oxohexyl)hexanamide]",,,,,over 90%

# More lines, now with the values ahead:
IC50 (full-length SHP2 (1-528)),SHP2 degradation (in words) (SHP2),Degradation at 1 μM (SHP2),Degradation at 10 μM (SHP2),compound converted into ring-opened products 13 [1],Compound
124 ± 21.6 nM,negligible to modest degradation,<10%,15%,,"Cc1ncsc1-c1ccc([C@H](C)NC(=O)[C@@H]2C[C@@H](O)CN2C(=O)[C@@H](NC(=O)CCCCCCCNC(=O)CCCCCC2(CN)CCN(c3cnc(Sc4cccc(Cl)c4Cl)c(N)n3)CC2)C(C)(C)C)cc1 [SC7, (2S,4R)-1-((S)-2-(8-(6-(1-(6-amino-5-((2,3-dichlorophenyl)thio)pyrazin-2-yl)-4-(aminomethyl)piperidin-4-yl)hexanamido)octanamido)-3,3-dimethylbutanoyl)-4-hydroxy-N-((S)-1-(4-(4-methylthiazol-5-yl)phenyl)ethyl)pyrrolidine-2-carboxamide]"
132 ± 8.7 nM,negligible to modest degradation,,25%,,"Cc1ncsc1-c1ccc([C@H](C)NC(=O)[C@@H]2C[C@@H](O)CN2C(=O)[C@@H](NC(=O)CCCCCCCCCNC(=O)CCCCCC2(CN)CCN(c3cnc(Sc4cccc(Cl)c4Cl)c(N)n3)CC2)C(C)(C)C)cc1 [SC9, (2S,4R)-1-((S)-2-(10-(6-(1-(6-amino-5-((2,3-dichlorophenyl)thio)pyrazin-2-yl)-4-(aminomethyl)piperidin-4-yl)hexanamido)decanamido)-3,3-dimethylbutanoyl)-4-hydroxy-N-((S)-1-(4-(4-methylthiazol-5-yl)phenyl)ethyl)pyrrolidine-2-carboxamide]"
122 ± 19.1 nM,,36%,,,"Cc1ncsc1-c1ccc([C@H](C)NC(=O)[C@@H]2C[C@@H](O)CN2C(=O)[C@@H](NC(=O)CCCCCCCCCCNC(=O)CCCCCC2(CN)CCN(c3cnc(Sc4cccc(Cl)c4Cl)c(N)n3)CC2)C(C)(C)C)cc1 [SC10, (2S,4R)-1-((S)-2-(11-(6-(1-(6-amino-5-((2,3-dichlorophenyl)thio)pyrazin-2-yl)-4-(aminomethyl)piperidin-4-yl)hexanamido)undecanamido)-3,3-dimethylbutanoyl)-4-hydroxy-N-((S)-1-(4-(4-methylthiazol-5-yl)phenyl)ethyl)pyrrolidine-2-carboxamide]"
105 ± 15.6 nM,,27%,64%,,"Cc1ncsc1-c1ccc([C@H](C)NC(=O)[C@@H]2C[C@@H](O)CN2C(=O)[C@@H](NC(=O)CCCCCCCCCCCNC(=O)CCCCCC2(CN)CCN(c3cnc(Sc4cccc(Cl)c4Cl)c(N)n3)CC2)C(C)(C)C)cc1 [SC11, (2S,4R)-1-((S)-2-(12-(6-(1-(6-amino-5-((2,3-dichlorophenyl)thio)pyrazin-2-yl)-4-(aminomethyl)piperidin-4-yl)hexanamido)dodecanamido)-3,3-dimethylbutanoyl)-4-hydroxy-N-((S)-1-(4-(4-methylthiazol-5-yl)phenyl)ethyl)pyrrolidine-2-carboxamide]"
